Test results reported in patent US11224577B2, “Treating infection by a platelet-targeting microbe using nanoparticles” (The Regents of the University of California, priority 2015, dated 2022).

Type: physicochemical
Protocol: 100 nm polymeric cores were prepared using 0.67 dL g^−1 carboxyl-terminated 50:50 poly(lactic-co-glycolic) acid (PLGA) (LACTEL Absorbable Polymers) in a nanoprecipitation process. 1 mL of 10 mg mL^−1 PLGA solution in acetone was added dropwise to 3 mL of water. For fluorescently labeled nanoformulations, 1,1′-dioctadecyl-3,3,3′,3′-tetramethylindodicarbocyanine perchlorate (DiD, ex=644 nm/em=665 nm, Life Technologies) was loaded into the polymeric cores at 0.1 wt %. The mixture was then stirred in open air for 1 h and placed in vacuum for another 3 h. The resulting nanoparticle solution was filtered with 10 kDa MWCO Amicon Ultra-4 Centrifugal Filters (Millipore). Platelet membrane cloaking was then accomplished by dispersing and fusing platelet membrane vesicles with PLGA particles via sonication using an FS30D bath sonicator at a frequency of 42 kHz and a power of 100 W for 2 min. […] The nanoparticle solutions were subject to either a freeze-thaw cycle or lyophilization followed by resuspension. The resulting particle solution was then monitored for particle size using DLS. […] RBCNPs were prepared using the same polymeric cores and RBC membranes of equivalent total surface area to the platelet membranes using a previously described protocol^16.

For PNPs, the colloidal stability was “Improved colloidal stability” and the “size and stability after storage” value was “retain their size and stability”.
